Structures can show the parent of a compound that is named as a salt.
The compounds below were run against T1, human P2Y12 receptor (Homo sapiens, UniProt Q9H244) (assay: P2Y12 receptor binding assay). Details: CHO cells with recombinant expression of the human P2Y12 receptor; tritium-labeled 2-methyl-S-ADP; incubation at room temperature for 2 hours.
T1 construct: expressed in transfected cells; host or cells: Chinese Hamster Ovary (CHO) cells
Description: P2Y12 Receptor Binding Assay
Chinese Hamster Ovary (CHO) cells with recombinant expression of the human P2Y12 receptor were cultured in 24 well cell-culture plates. Cells were washed three times with binding buffer (50 mM Tris pH 7.4, 100 mM NaCl, 1 mM EDTA, 0.5% BSA). The cells were then incubated with 0.5 ml per well binding buffer containing tritium-labeled 2-methyl-thio-adenosine 5′-diphosphate (2-methyl-S-ADP) (between 100'000 and 300'000 dpm per well) and various concentrations of test compounds. After incubation at room temperature for 2 hours, cells were washed three times with binding buffer. Then, cells were solubilized by addition of 0.5 ml solubilization buffer (SDS, NaOH, EDTA). The content of each well was then transferred into beta-counter vials and 2.0 ml of Ultima Gold Scintillation liquid was added.

T1 sequence (Q9H244 whole entry): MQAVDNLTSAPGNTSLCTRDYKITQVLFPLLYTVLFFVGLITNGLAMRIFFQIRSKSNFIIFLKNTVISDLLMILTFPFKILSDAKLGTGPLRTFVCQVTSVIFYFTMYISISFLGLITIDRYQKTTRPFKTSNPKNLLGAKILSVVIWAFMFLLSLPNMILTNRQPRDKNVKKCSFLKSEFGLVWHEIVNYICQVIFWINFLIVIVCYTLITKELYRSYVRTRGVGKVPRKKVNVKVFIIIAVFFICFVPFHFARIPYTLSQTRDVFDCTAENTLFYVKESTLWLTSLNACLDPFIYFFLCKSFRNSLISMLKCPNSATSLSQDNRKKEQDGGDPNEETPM

How did the IC50 turn out when `CCCSc1cc(C(=O)N[C@@H](CCC(=O)O)C(=O)N2CCN(C(=O)OCC)CC2)nc(-c2ccccc2)n1` [Example 247, 4-{(S)-4-carboxy-2-[(2-phenyl-6-propylsulfanyl-pyrimidine-4-carbonyl)-amino]-butyryl}-piperazine-1-carboxylic acid ethyl ester] was run?
Its IC50 is 142 nM.

How did the IC50 turn out when `CCOC(=O)N1CCN(C(=O)[C@H](CCC(=O)O)NC(=O)c2cc(SC3CCCC3)nc(-c3ccccc3)n2)CC1` [Example 249, 4-{(S)-4-carboxy-2-[(6-cyclopentylsulfanyl-2-phenyl-pyrimidine-4-carbonyl)-amino]-butyryl}-piperazine-1-carboxylic acid ethyl ester] was run?
Its IC50 is 101 nM.

`CCOC(=O)N1CCN(C(=O)[C@H](CCC(=O)O)NC(=O)c2cc(SC3CCCCC3)nc(-c3ccccc3)n2)CC1` [Example 251, 4-{(S)-4-carboxy-2-[(6-cyclohexylsulfanyl-2-phenyl-pyrimidine-4-carbonyl)-amino]-butyryl}-piperazine-1-carboxylic acid ethyl ester] was tested. Which IC50 did it give?
The IC50 was 624 nM.

With `C#Cc1cc(C(=O)N[C@@H](CCC(=O)O)C(=O)N2CCN(C(=O)OCC)CC2)nc(-c2ccccc2)n1` [Example 258, 4-{(S)-4-carboxy-2-[(6-ethynyl-2-phenyl-pyrimidine-4-carbonyl)-amino]-butyryl}-piperazine-1-carboxylic acid ethyl ester] as the compound, how does the IC50 read?
Its IC50 is 253 nM.

With `CCOC(=O)N1CCN(C(=O)[C@H](CCC(=O)O)NC(=O)c2cc(C#CC(O)CC)nc(-c3ccccc3)n2)CC1` (stereo partly drawn) [Example 261, 4-((S)-4-carboxy-2-{[6-(3-hydroxy-pent-1-ynyl)-2-phenyl-pyrimidine-4-carbonyl]-amino}-butyryl)-piperazine-1-carboxylic acid ethyl ester] as the compound, how does the IC50 read?
The IC50 was 126 nM.

How did the IC50 turn out when `CCOC(=O)N1CCN(C(=O)[C@H](CCC(=O)O)NC(=O)c2cc(CCC(C)(C)O)nc(-c3ccccc3)n2)CC1` [Example 266, 4-((S)-4-carboxy-2-{[6-(3-hydroxy-3-methyl-butyl)-2-phenyl-pyrimidine-4-carbonyl]-amino}-butyryl)-piperazine-1-carboxylic acid ethyl ester] was run?
The IC50 was 273 nM.

For `CCOC(=O)N1CCN(C(=O)[C@H](CCC(=O)O)NC(=O)c2cc(/C=C/C(C)O)nc(-c3ccccc3)n2)CC1` (stereo partly drawn) [Example 267, 4-((S)-4-carboxy-2-{[6-((E)-3-hydroxy-but-1-enyl)-2-phenyl-pyrimidine-4-carbonyl]-amino}-butyryl)-piperazine-1-carboxylic acid ethyl ester], which IC50 is on record?
Its IC50 is 216 nM.

Which IC50 does the source give for `CCOC(=O)N1CCN(C(=O)[C@H](CCC(=O)O)NC(=O)c2cc(N3CCC[C@@H]3COC)nc(-c3ccccc3)n2)CC1` [Example 324, 4-((S)-4-carboxy-2-{[6-((R)-2-methoxymethyl-pyrrolidin-1-yl)-2-phenyl-pyrimidine-4-carbonyl]-amino}-butyryl)-piperazine-1-carboxylic acid ethyl ester formate salt] here?
The IC50 was 61 nM.

With `CCOC(=O)N1CCN(C(=O)[C@H](CCC(=O)O)NC(=O)c2cc(N)nc(-c3ccccc3)n2)CC1` [Example 333, 4-{(S)-2-[(6-amino-2-phenyl-pyrimidine-4-carbonyl)-amino]-4-carboxy-butyryl}-piperazine-1-carboxylic acid ethyl ester triflate salt] as the compound, how does the IC50 read?
Its IC50 is 161 nM.

How did the IC50 turn out when `CCCC(CCC)C(=O)Nc1cc(C(=O)N[C@@H](CCC(=O)O)C(=O)N2CCN(C(=O)OCC)CC2)nc(-c2ccccc2)n1` [Example 341, 4-((S)-4-carboxy-2-{[2-phenyl-6-(2-propyl-pentanoylamino)-pyrimidine-4-carbonyl]-amino}-butyryl)-piperazine-1-carboxylic acid ethyl ester] was run?
The IC50 was 169 nM.

How did the IC50 turn out when `CCOC(=O)N1CCN(C(=O)[C@H](CCC(=O)O)NC(=O)c2cc(CN(C)Cc3ccccc3)nc(-c3ccccc3)n2)CC1` [Example 362, 4-[(S)-2-({6-[(benzyl-methyl-amino)-methyl]-2-phenyl-pyrimidine-4-carbonyl}-amino)-4-carboxy-butyryl]-piperazine-1-carboxylic acid ethyl ester] was run?
The IC50 was 86 nM.

`CCOC(=O)N1CCN(C(=O)[C@H](CCC(=O)O)NC(=O)c2cc(CS(=O)(=O)CC)nc(-c3ccccc3)n2)CC1` [Example 375, 4-{(S)-4-carboxy-2-[(6-ethanesulfonylmethyl-2-phenyl-pyrimidine-4-carbonyl)-amino]-butyryl}-piperazine-1-carboxylic acid ethyl ester] was tested. Which IC50 did it give?
The IC50 was 108 nM.

For `CCOC(=O)N1CCN(C(=O)[C@H](CCC(=O)O)NC(=O)c2cc(CSC3CCCC3)nc(-c3ccccc3)n2)CC1` [Example 378, 4-{(S)-4-carboxy-2-[(6-cyclopentylsulfanylmethyl-2-phenyl-pyrimidine-4-carbonyl)-amino]-butyryl}-piperazine-1-carboxylic acid ethyl ester], which IC50 is on record?
The IC50 was 157 nM.

How did the IC50 turn out when `CCOC(=O)N1CCN(C(=O)[C@H](CCC(=O)O)NC(=O)c2cc(-c3cn[nH]c3)nc(-c3ccccc3)n2)CC1` [Example 396, 4-((S)-4-carboxy-2-{[2-phenyl-6-(1H-pyrazol-4-yl)-pyrimidine-4-carbonyl]-amino}-butyryl)-piperazine-1-carboxylic acid ethyl ester] was run?
The IC50 was 73 nM.

How did the IC50 turn out when `CCOC(=O)N1CCN(C(=O)[C@H](CCC(=O)O)NC(=O)c2cc(C(C)=O)nc(-c3ccccc3)n2)CC1` [Example 402, 4-{(S)-2-[(6-acetyl-2-phenyl-pyrimidine-4-carbonyl)-amino]-4-carboxy-butyryl}-piperazine-1-carboxylic acid ethyl ester] was run?
The IC50 was 72 nM.

`CCOC(=O)N1CCN(C(=O)[C@H](CCC(=O)O)NC(=O)c2cc(CCO)nc(-c3ccccc3)n2)CC1` [Example 408, 4-((S)-4-carboxy-2-{[6-(2-hydroxy-ethyl)-2-phenyl-pyrimidine-4-carbonyl]-amino}-butyryl)-piperazine-1-carboxylic acid ethyl ester] was tested. Which IC50 did it give?
The IC50 was 207 nM.

`CCOC(=O)N1CCN(C(=O)[C@H](CCC(=O)O)NC(=O)c2cc(-c3ccc[n+]([O-])c3)nc(-c3ccccc3)n2)CC1` [Example 418, 4-((S)-4-carboxy-2-{[6-(1-oxy-pyridin-3-yl)-2-phenyl-pyrimidine-4-carbonyl]-amino}-butyryl)-piperazine-1-carboxylic acid ethyl ester] was tested. Which IC50 did it give?
The IC50 was 129 nM.

Which IC50 does the source give for `CCOC(=O)N1CCN(C(=O)[C@H](CCC(=O)O)NC(=O)c2cc(/C=C/CCO)nc(-c3ccccc3)n2)CC1` [Example 421, 4-((S)-4-carboxy-2-{[6-((E)-4-hydroxy-but-1-enyl)-2-phenyl-pyrimidine-4-carbonyl]-amino}-butyryl)-piperazine-1-carboxylic acid ethyl ester] here?
Its IC50 is 75 nM.

How did the IC50 turn out when `CCOCc1cc(C(=O)N[C@@H](CCC(=O)O)C(=O)N2CCN(C(=O)OCC)CC2)nc(-c2ccccc2)n1` [Example 430, 4-{(S)-4-carboxy-2-[(6-ethoxymethyl-2-phenyl-pyrimidine-4-carbonyl)-amino]-butyryl}-piperazine-1-carboxylic acid ethyl ester] was run?
The IC50 was 188 nM.

How did the IC50 turn out when `CCOC(=O)N1CCN(C(=O)[C@H](CCC(=O)O)NC(=O)c2cc(C(F)(F)F)nc(-c3ccccc3)n2)CC1` [Example 431, 4-{(S)-4-carboxy-2-[(2-phenyl-6-trifluoromethyl-pyrimidine-4-carbonyl)-amino]-butyryl}-piperazine-1-carboxylic acid ethyl ester] was run?
The IC50 was 170 nM.

How did the IC50 turn out when `CC(C)(C)NC(=O)N1CCN(C(=O)[C@H](CCC(=O)O)NC(=O)c2cc(OC3CCCC3)nc(-c3ccccc3)n2)CC1` [Example 435, (S)-5-(4-tert-butylcarbamoyl-piperazin-1-yl)-4-[(6-cyclopentyloxy-2-phenyl-pyrimidine-4-carbonyl)-amino]-5-oxo-pentanoic acid] was run?
The IC50 was 94 nM.

— patent US8048881B2, “Pyrimidine derivatives and their use as P2Y12 receptor antagonists” (Actelion Pharmaceuticals Ltd., priority 2005, dated 2011)
